# Experimental data from publication PMC5762315, “Inhibition of polo-like kinase 4 (PLK4): a new therapeutic option for rhabdoid tumors and pediatric medulloblastoma” (Oncotarget, 2017).
# Several values for one entry are separate records, joined by “and”; a condition that tells them apart may be missing. Identical values can stand only once.
# Legend:
# Assay in all cases: LanthaScreen Eu Kinase Binding Assay, panel of 486 biochemical kinase assays
# [1] = target: various kinases (Homo sapiens, UniProt P07949, G691S); details: kinase RET G691S; LanthaScreen Binding
# [2] = target: T1, various kinases (Homo sapiens, UniProt Q9H2K8); details: kinase TAOK3 (JIK); LanthaScreen Binding
# T1 sequence (Q9H2K8 1-898): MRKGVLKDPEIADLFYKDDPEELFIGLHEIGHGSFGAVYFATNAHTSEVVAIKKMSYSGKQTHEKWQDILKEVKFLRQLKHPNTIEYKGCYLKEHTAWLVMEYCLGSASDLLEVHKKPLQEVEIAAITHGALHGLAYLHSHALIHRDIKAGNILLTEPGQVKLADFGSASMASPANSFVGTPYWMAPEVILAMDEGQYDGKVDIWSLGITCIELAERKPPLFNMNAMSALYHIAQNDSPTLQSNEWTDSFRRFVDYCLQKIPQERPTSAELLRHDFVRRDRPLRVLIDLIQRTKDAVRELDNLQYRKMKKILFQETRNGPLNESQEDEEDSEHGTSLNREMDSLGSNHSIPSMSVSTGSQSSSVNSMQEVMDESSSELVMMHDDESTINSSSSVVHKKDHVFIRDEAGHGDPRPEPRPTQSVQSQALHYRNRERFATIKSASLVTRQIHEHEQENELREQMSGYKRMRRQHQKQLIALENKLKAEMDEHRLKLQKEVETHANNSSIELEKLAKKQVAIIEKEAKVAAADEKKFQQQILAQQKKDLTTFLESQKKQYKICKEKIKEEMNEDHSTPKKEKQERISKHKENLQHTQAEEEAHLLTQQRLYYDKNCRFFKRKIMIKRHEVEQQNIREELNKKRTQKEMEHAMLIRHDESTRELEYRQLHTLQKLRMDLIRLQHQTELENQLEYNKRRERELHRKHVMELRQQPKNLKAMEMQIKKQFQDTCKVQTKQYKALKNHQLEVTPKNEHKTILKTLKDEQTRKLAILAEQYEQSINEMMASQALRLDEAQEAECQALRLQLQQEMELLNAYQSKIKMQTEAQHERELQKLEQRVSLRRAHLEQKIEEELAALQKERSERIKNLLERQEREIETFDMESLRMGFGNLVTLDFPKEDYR
# [3] = target: various kinases (Homo sapiens, UniProt Q2M2I8); details: AAK1
# [4] = target: T2, various kinases (Homo sapiens, UniProt O75385); details: kinase ULK1; LanthaScreen Binding
# T2 sequence (O75385 1-1050): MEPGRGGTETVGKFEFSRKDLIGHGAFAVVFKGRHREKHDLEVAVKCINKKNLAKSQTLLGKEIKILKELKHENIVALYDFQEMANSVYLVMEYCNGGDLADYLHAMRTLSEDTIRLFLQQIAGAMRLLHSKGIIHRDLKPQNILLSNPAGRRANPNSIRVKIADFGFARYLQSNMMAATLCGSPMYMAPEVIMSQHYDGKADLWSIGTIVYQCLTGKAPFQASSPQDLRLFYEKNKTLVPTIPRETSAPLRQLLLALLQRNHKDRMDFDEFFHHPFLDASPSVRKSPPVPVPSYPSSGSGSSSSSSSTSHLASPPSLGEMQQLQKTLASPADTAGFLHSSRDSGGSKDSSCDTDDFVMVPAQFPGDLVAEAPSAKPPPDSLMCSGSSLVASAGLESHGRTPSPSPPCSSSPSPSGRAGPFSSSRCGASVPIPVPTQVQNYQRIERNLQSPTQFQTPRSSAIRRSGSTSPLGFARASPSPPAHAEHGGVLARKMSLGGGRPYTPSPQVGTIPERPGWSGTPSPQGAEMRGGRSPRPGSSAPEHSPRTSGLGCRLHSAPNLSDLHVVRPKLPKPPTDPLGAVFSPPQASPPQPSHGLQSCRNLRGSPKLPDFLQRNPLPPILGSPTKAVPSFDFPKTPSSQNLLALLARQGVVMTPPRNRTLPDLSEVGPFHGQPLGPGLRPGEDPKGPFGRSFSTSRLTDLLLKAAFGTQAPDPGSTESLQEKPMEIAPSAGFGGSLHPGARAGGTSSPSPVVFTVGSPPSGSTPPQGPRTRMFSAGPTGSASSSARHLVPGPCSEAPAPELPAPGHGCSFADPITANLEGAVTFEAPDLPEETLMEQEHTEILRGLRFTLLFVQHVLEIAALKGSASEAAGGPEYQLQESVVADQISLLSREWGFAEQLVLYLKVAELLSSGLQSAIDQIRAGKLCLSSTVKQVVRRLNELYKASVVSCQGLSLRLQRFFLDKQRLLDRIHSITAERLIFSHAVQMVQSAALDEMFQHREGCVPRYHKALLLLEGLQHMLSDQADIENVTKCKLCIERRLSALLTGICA
# [5] = target: various kinases (Homo sapiens, UniProt P15056); details: BRAF
# [6] = target: various kinases (Homo sapiens, UniProt P10721, A829P); details: KIT A829P
# [7] = target: various kinases (Homo sapiens, UniProt O43353); details: kinase RIPK2; LanthaScreen Binding
# [8] = target: various kinases (Homo sapiens, UniProt Q5TCX8); details: MLK4
# [9] = target: various kinases (Homo sapiens, UniProt Q8NEV4); details: MYO3A (MYO3 alpha)
# [10] = target: various kinases (Homo sapiens, UniProt Q15375); details: EPHA7
# various kinases (Homo sapiens, UniProt P07949, G691S), sequence (P07949 29-1114 G691S): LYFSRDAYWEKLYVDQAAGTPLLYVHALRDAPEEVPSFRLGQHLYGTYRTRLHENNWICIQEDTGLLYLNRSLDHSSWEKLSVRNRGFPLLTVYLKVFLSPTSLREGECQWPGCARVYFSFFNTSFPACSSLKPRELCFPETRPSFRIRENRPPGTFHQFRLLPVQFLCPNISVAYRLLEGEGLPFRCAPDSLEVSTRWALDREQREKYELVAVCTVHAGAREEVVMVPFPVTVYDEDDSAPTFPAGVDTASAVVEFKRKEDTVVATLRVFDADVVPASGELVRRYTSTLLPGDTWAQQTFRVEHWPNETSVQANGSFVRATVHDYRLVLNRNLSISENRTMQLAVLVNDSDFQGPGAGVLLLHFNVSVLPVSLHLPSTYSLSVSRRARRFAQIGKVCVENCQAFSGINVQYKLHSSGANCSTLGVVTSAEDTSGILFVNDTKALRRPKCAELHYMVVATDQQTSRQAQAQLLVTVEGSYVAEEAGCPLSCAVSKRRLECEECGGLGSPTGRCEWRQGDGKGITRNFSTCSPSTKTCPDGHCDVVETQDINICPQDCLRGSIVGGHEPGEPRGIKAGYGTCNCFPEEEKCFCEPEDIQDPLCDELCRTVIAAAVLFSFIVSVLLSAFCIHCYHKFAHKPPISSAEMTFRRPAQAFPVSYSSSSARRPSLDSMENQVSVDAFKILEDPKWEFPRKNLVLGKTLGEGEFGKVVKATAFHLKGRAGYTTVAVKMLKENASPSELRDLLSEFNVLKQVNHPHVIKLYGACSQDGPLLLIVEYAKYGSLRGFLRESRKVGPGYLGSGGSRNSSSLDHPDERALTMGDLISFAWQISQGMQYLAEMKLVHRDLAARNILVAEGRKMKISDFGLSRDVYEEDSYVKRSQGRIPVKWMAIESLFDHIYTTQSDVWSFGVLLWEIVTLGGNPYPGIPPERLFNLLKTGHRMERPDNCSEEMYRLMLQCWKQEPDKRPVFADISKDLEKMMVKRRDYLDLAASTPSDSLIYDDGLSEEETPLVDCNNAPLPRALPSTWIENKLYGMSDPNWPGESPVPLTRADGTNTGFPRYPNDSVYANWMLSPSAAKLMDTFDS
# various kinases (Homo sapiens, UniProt O43353), sequence (O43353 whole entry): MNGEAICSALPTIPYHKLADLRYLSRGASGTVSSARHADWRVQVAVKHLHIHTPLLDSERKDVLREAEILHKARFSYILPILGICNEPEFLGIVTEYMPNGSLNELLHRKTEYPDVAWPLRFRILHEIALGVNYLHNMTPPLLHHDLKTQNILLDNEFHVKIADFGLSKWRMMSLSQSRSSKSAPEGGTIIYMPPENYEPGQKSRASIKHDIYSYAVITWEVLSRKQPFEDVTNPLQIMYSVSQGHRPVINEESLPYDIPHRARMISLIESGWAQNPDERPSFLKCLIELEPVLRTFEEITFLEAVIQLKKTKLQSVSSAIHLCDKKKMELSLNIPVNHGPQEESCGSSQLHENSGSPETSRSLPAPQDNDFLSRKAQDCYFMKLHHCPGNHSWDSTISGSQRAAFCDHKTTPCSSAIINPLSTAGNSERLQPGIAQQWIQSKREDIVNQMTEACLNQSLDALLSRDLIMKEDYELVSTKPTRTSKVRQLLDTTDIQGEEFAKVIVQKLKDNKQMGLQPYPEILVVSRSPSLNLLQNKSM
# various kinases (Homo sapiens, UniProt P15056), sequence (P15056 whole entry): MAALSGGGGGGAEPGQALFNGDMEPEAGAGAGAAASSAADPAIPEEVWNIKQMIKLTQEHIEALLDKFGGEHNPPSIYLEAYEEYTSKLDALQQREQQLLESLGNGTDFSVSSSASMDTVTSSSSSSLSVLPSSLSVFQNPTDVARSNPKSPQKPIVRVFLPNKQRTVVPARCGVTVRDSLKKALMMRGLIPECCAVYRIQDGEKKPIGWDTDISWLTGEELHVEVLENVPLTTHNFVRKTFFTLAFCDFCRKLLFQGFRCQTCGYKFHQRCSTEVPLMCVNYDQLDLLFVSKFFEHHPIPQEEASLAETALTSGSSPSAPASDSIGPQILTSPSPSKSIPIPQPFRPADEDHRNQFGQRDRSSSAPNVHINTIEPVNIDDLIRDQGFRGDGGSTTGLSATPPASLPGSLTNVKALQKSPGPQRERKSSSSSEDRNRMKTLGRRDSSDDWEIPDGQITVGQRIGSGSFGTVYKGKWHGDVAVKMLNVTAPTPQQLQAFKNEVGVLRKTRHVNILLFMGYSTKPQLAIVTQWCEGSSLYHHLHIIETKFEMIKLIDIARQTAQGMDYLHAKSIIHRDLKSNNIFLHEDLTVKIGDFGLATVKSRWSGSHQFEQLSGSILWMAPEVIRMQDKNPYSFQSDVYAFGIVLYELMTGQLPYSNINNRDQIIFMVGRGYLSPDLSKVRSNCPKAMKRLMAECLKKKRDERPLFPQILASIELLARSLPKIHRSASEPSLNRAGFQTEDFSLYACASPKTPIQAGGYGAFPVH
# various kinases (Homo sapiens, UniProt Q5TCX8), sequence (Q5TCX8 whole entry): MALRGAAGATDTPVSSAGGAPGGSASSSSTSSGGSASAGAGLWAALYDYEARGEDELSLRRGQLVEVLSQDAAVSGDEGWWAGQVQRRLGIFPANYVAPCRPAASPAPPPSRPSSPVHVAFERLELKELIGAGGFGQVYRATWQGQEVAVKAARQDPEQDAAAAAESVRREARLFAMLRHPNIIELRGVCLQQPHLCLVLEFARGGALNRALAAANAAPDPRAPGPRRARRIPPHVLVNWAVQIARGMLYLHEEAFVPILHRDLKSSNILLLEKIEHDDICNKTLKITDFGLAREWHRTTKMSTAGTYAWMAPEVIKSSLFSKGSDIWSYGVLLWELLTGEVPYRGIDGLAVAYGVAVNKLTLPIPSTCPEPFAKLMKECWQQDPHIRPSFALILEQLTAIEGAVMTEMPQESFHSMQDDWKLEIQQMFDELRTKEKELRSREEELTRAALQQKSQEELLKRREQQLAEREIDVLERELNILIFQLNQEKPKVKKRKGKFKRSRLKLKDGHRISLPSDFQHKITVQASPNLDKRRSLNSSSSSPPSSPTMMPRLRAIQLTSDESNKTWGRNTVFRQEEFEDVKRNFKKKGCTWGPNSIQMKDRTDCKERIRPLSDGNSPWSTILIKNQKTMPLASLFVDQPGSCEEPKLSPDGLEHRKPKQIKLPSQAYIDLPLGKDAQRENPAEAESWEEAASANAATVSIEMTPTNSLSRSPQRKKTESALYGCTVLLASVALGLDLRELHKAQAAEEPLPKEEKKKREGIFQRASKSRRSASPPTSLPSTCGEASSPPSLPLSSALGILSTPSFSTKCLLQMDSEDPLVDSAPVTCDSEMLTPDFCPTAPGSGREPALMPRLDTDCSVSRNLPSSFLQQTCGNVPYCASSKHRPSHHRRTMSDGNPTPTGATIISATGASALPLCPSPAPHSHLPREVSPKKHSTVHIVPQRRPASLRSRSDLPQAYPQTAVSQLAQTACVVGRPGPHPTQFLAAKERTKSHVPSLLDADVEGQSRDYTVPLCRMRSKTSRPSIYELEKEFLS
# various kinases (Homo sapiens, UniProt P10721, A829P), sequence (P10721 26-976 A829P): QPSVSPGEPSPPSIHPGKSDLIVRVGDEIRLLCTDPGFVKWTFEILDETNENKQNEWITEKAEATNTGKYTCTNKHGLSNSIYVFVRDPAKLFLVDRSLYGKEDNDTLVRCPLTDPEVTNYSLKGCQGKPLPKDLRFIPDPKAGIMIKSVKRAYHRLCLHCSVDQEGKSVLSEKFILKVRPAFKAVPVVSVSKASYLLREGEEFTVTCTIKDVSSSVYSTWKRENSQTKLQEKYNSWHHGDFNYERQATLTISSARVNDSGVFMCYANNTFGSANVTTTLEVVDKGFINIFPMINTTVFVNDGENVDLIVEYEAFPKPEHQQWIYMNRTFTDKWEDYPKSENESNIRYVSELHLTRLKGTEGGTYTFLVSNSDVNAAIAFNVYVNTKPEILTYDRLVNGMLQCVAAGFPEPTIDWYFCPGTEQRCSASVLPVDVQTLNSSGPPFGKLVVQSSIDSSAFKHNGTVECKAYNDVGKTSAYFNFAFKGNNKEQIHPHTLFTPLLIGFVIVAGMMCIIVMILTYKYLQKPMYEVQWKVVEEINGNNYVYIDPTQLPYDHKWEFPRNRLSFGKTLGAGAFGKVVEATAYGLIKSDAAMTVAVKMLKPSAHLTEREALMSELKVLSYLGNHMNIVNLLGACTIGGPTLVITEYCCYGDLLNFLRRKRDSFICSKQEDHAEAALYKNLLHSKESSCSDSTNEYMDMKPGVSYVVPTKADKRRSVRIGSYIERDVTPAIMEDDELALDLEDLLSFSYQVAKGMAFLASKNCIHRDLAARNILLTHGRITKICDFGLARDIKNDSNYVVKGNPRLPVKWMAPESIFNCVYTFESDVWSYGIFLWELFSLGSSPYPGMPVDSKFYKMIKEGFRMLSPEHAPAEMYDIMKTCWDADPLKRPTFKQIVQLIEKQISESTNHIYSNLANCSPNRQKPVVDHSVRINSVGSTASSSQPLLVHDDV
smiles,measurement,setting,value
COc1ccc2c(c1)[C@]1(C[C@H]1c1ccc3c(/C=C/c4ccc(CN5C[C@@H](C)O[C@@H](C)C5)cc4)n[nH]c3c1)C(=O)N2 [CFI-400945],% Inhibition Average,[1],-1%
same,% Inhibition Duplicate #1,[1],-11%
same,% Inhibition Duplicate #2,[1],9%
same,% Inhibition Average,[2],10%
same,% Inhibition Duplicate #1,[2],14%
same,% Inhibition Duplicate #2,[2],6%
same,% Inhibition,[3],9% and 6%
same,% Inhibition Average,[4],3%
same,% Inhibition Duplicate #1,[4],4%
same,% Inhibition Duplicate #2,[4],2%
same,% Inhibition,[5],0% and 6%
same,% Inhibition,[6],0% and 7%
same,% Inhibition Average,[7],3%
same,% Inhibition Duplicate #1,[7],3%
same,% Inhibition Duplicate #2,[7],3%
same,% Inhibition,[8],8% and 4%
same,% Inhibition,[9],8%
same,% Inhibition,[10],-4% and 5%
